Data: ChEMBL document CHEMBL1212883, “Limonoids from the leaves of Cipadessa baccifera” (J Nat Prod, 2010)
pIC50: −log10 of the molar value.

Key:
Format in all cases: functional, cell-based
A549 = experiment: Cytotoxicity against human A549 cells after 72 hrs by MTT assay; conditions: A549, 72 h
SW480 = experiment: Cytotoxicity against human SW480 cells after 72 hrs by MTT assay; conditions: SW480, 72 h
SMMC-7721 = experiment: Cytotoxicity against human SMMC7721 cells after 72 hrs by MTT assay; conditions: SMMC-7721, 72 h
MCF7 = experiment: Cytotoxicity against human MCF7 cells after 72 hrs by MTT assay; conditions: MCF7, 72 h
HL-60 = experiment: Cytotoxicity against human HL60 cells after 72 hrs by MTT assay; conditions: HL-60, 72 h

SMILES | pIC50 (A549) | pIC50 (SW480) | pIC50 (SMMC-7721) | pIC50 (MCF7) | pIC50 (HL-60)
CC(=O)O[C@H]1C[C@@H](OC(C)=O)[C@@]2(C)CO[C@H]3[C@@H](O)[C@]4(C)[C@H](CC[C@@]5(C)[C@H](c6ccoc6)OC(=O)[C@@H]6O[C@]645)[C@]1(C)[C@@H]32 [CIPADESIN J] | < 4.40 | 4.70 | 4.69 | < 4.40 | < 4.40
CCC(C)C(=O)O[C@@H]1[C@@H]2OC[C@]3(C)[C@H](OC(C)=O)C[C@H](OC(C)=O)[C@](C)([C@H]4CC[C@@]5(C)[C@H](c6ccoc6)OC(=O)[C@@H]6O[C@@]65[C@]14C)[C@@H]23 (stereo not given in full) [CIPADESIN K] | < 4.40 | 4.44 | < 4.40 | < 4.40 | < 4.40
CCC(C)C(=O)O[C@@H]1[C@@H]2OC[C@]3(C)[C@H](OC(C)=O)C[C@H](OC(C)=O)[C@@](C)([C@@H]23)[C@H]2CC[C@]3(C)C(=CC(=O)[C@H]3c3ccoc3)[C@]12C (stereo not given in full) [CIPADESIN L] | < 4.40 | < 4.40 | < 4.40 | < 4.40 | < 4.40
CCC(C)C(=O)O[C@@H]1[C@@H]2OC[C@]3(C)[C@H](OC(C)=O)C[C@H](OC(C)=O)[C@](C)([C@H]4CC[C@@]5(C)[C@H](c6ccoc6)C(=O)[C@@H]6O[C@@]65[C@]14C)[C@@H]23 (stereo not given in full) [CIPADESIN M] | < 4.40 | < 4.40 | < 4.40 | < 4.40 | < 4.40
CCC(C)C(=O)O[C@H]1C(C)(C)[C@H](CC(=O)OC)[C@]2(C)C(=O)[C@@]1(O)CC1=C3CC(=O)O[C@@H](c4ccoc4)[C@]3(C)CC[C@@H]12 (stereo not given in full) [CIPADESIN N] | < 4.40 | < 4.40 | < 4.40 | < 4.40 | < 4.40
CCC(C)C(=O)O[C@@H]1[C@H]2C(=O)[C@](C)(C3=CC[C@]4(C)[C@@H](CC(=O)O[C@H]4c4ccoc4)[C@]34O[C@H]24)[C@@H](CC(=O)OC)C1(C)C (stereo not given in full) [CIPADESIN O] | < 4.40 | < 4.40 | < 4.40 | < 4.40 | < 4.40
C=C1[C@]2(O)C(=O)C[C@@]3(C)[C@H](c4ccoc4)OC(=O)C[C@]13O[C@H]1[C@@H](OC(C)=O)[C@@H](OC(C)=O)C(C)(C)[C@H](CC(=O)OC)[C@]12C [CIPADESIN P] | < 4.40 | < 4.40 | < 4.40 | < 4.40 | < 4.40
C=C1[C@]2(O)CC[C@@]3(C)[C@H](c4ccoc4)OC(=O)C[C@]13O[C@H]1C[C@@H](OC(C)=O)C(C)(C)[C@H](CC(=O)OC)[C@]12C [CIPADESIN Q] | < 4.40 | < 4.40 | < 4.40 | < 4.40 | < 4.40
